What is called Km is the concentration of substrate that gives half-maximal velocity.

Like-named read-outs stand apart in the source and are kept apart here.

Test [1] deals with UnBGl1. The test can be described thus: pNP release, absorbance […] nm, Michaelis-Menten. It counts as biochemical, soil metagenome. Conditions: pH 6.0, 55 °C, 10 min.
Test [2] concerns UnBGl1. To be noted: optimum pH 6.5, 55 °C, 10 min.
Test [3] deals with UnBGl1. Conditions: pH 6.0, 55 °C, 10 min.
In test [4] the test system is UnBGl1. Conditions: optimum pH 5.5, 50 °C, 30 min.
The subject of test [5] is UnBGl1. Conditions: pH 6.0, 50 °C, 30 min.

Take `O=[N+]([O-])c1ccc(O[C@@H]2O[C@H](CO)[C@@H](O)[C@H](O)[C@H]2O)cc1` [4-nitrophenyl β-D-glucopyranoside]: the Km with UnBGl1 [1] came to 0.92 ± 0.05 mM; in the test with UnBGl1 [2], 0.65 ± 0.04 mM; with UnBGl1 [3], 7.35 ± 3 mM.

Consider `OC[C@H]1O[C@@H](O[C@H]2[C@H](O)[C@@H](O)C(O)O[C@@H]2CO)[C@H](O)[C@@H](O)[C@@H]1O` (some centres unmarked) [cellobiose], for which the Km with UnBGl1 [4] was 22.9 ± 1.1 mM; in the test with UnBGl1 [5], 34.6 ± 2.4 mM.

For the origin of these results see publication doi:10.1101/2025.01.02.631061v1 (biorxiv, 2025).
